Reference: publication PMC6357863, “Dithiocarbamate-inspired side chain stapling chemistry for peptide drug design” (Chemical Science, 2018)
Like-named read-outs stand apart in the source and are kept apart here.

Key:
circular dichroism = conditions: phosphate buffer (PB); pH 7.2; 20 °C; 10-50 uM
[1] = Dithiocarbamate (DTC) stapling of unprotected peptides: Lys side-chain amine + CS2 (Et3N) gives Lys-NH-C(=S)S-, then intramolecular thia-Michael addition to dehydroalanine (Dha, made beforehand from Cys with 2,5-dibromohexanediamide and HPLC-purified); conditions: the molecule shown is the open-chain precursor, 21-membered ring, ethanol/Et3N/CS2 10:1:1 v/v
[2] = the molecule shown is the open-chain precursor; 21-membered ring
[3] = Circular dichroism spectroscopy, helical content; assay type: physicochemical; conditions: CD, PB pH 7.2, 10-50 μM peptide, 20 °C
Description: Circular Dichroism (CD) Spectroscopy.
(§1) from 10-50 μM. […] The spectra were […]

cathepsin G = cathepsin G (Homo sapiens, UniProt P08311); conditions: 100 μM peptide, cell culture medium (RPMI 1640), 25 μg/ml cathepsin G, room temperature, RP-HPLC and ESI-MS
Description: and three independent experiments were performed.
Fluorescence polarization (FP).
As an additional positive control, we
Tecan Infinite M1000 plate reader. […]
additional incubation for 64 hours.
Circular Dichroism (CD) Spectroscopy. […]
as §1
of each peptide was calculated as reported previously. 12
Stability in GSH. […] RP-

Chain of cathepsin G (P08311 21-255, species assumed): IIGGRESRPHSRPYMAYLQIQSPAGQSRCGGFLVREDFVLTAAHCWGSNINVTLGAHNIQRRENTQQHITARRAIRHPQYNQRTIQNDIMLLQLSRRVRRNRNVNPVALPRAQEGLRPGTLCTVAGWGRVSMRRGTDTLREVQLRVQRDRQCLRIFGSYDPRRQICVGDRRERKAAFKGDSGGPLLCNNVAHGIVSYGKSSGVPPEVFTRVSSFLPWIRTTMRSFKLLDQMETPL

Row | Compound | helicity (circular dichroism) | ring closure, isolated yield [1] | further results
1 | CC(=O)N[C@H](C(=O)N[C@H]1CCCCNC(=S)SC[C@@H](C(=O)N[C@@H](Cc2c[nH]c3ccccc23)C(=O)N[C@@H](CC(N)=O)C(=O)N[C@@H](CC(C)C)C(=O)N[C@@H](CC(C)C)C(=O)N[C@@H](CO)C(=O)N2CCC[C@H]2C(N)=O)NC(=O)[C@H](CCC(=O)O)NC(=O)[C@H](C)NC(=O)[C@H](Cc2ccccc2)NC1=O)[C@@H](C)O | 15.3% |  | 
2 | CC(=O)N[C@H](C(=O)N[C@@H](CO)C(=O)N[C@@H](Cc1ccccc1)C(=O)N[C@@H](C)C(=O)N[C@H]1CSC(=S)NCCCC[C@@H](C(=O)N[C@@H](CC(C)C)C(=O)N[C@@H](CO)C(=O)N2CCC[C@H]2C(N)=O)NC(=O)[C@H](CC(N)=O)NC(=O)[C@H](Cc2c[nH]c3ccccc23)NC(=O)[C@H](Cc2ccc(O)cc2)NC1=O)[C@@H](C)O | 9.58% |  | 
3 | C=C(NC(=O)[C@H](Cc1c[nH]c2ccccc12)NC(=O)[C@H](Cc1ccc(O)cc1)NC(=O)[C@H](CCC(=O)O)NC(=O)[C@H](CCCCNC(=S)S)NC(=O)[C@H](Cc1ccccc1)NC(=O)[C@H](CO)NC(=O)[C@@H](NC(C)=O)[C@@H](C)O)C(=O)N[C@@H](CC(C)C)C(=O)N[C@@H](CC(C)C)C(=O)N[C@@H](CO)C(=O)N1CCC[C@H]1C(N)=O [Ac-Thr-Ser-Phe-Lys-Glu-Tyr-Trp-Dha-Leu-Leu-Ser-Pro-NH2] |  | 42% | 
4 | C=C(NC(=O)[C@H](Cc1c[nH]c2ccccc12)NC(=O)[C@H](Cc1ccc(O)cc1)NC(=O)[C@H](CCC(=O)O)NC(=O)[C@H](C)NC(=O)[C@H](Cc1ccccc1)NC(=O)[C@H](CO)NC(=O)[C@@H](NC(C)=O)[C@@H](C)O)C(=O)N[C@@H](CC(C)C)C(=O)N[C@@H](CC(C)C)C(=O)N[C@@H](CO)C(=O)N[C@@H](CCCCNC(=S)S)C(N)=O [Ac-Thr-Ser-Phe-Ala-Glu-Tyr-Trp-Dha-Leu-Leu-Ser-Lys-NH2] |  |  | ring closure, isolated yield [2]: 38%
5 | C=C(NC(=O)[C@H](CCC(=O)O)NC(=O)[C@H](C)NC(=O)[C@H](Cc1ccccc1)NC(=O)[C@H](CCCCNC(=S)S)NC(=O)[C@@H](NC(C)=O)[C@@H](C)O)C(=O)N[C@@H](Cc1c[nH]c2ccccc12)C(=O)N[C@@H](CC(N)=O)C(=O)N[C@@H](CC(C)C)C(=O)N[C@@H](CC(C)C)C(=O)N[C@@H](CO)C(=O)N1CCC[C@H]1C(N)=O [Ac-Thr-Lys-Phe-Ala-Glu-Dha-Trp-Asn-Leu-Leu-Ser-Pro-NH2] |  | 34% | 
6 | CC(=O)N[C@H](C(=O)N[C@@H](CO)C(=O)N[C@@H](Cc1ccccc1)C(=O)N[C@H]1CCCCNC(=S)SC[C@@H](C(=O)N[C@@H](CC(C)C)C(=O)N[C@@H](CC(C)C)C(=O)N[C@@H](CO)C(=O)N2CCC[C@H]2C(N)=O)NC(=O)[C@H](Cc2c[nH]c3ccccc23)NC(=O)[C@H](Cc2ccc(O)cc2)NC(=O)[C@H](CCC(=O)O)NC1=O)[C@@H](C)O | 39.3% |  | 
7 | C=C(NC(=O)[C@H](Cc1c[nH]c2ccccc12)NC(=O)[C@H](Cc1ccc(O)cc1)NC(=O)[C@H](CCC(N)=O)NC(=O)[C@H](CCCCNC(=S)S)NC(=O)[C@H](Cc1ccccc1)NC(=O)[C@H](CO)NC(=O)[C@@H](NC(C)=O)[C@@H](C)O)C(=O)N[C@@H](CC(C)C)C(=O)N[C@@H](CC(C)C)C(=O)N[C@@H](CO)C(=O)N[C@@H](CCCNC(=N)N)C(N)=O [Ac-Thr-Ser-Phe-Lys-Gln-Tyr-Trp-Dha-Leu-Leu-Ser-Arg-NH2] |  | 46% | 
8 | CC(=O)N[C@H](C(=O)N[C@H]1CSC(=S)NCCCC[C@@H](C(=O)N[C@@H](Cc2c[nH]c3ccccc23)C(=O)N[C@@H](CC(N)=O)C(=O)N[C@@H](CC(C)C)C(=O)N[C@@H](CC(C)C)C(=O)N[C@@H](CO)C(=O)N2CCC[C@H]2C(N)=O)NC(=O)[C@H](CCC(=O)O)NC(=O)[C@H](C)NC(=O)[C@H](Cc2ccccc2)NC1=O)[C@@H](C)O | 4.81% |  | 
9 | CC(=O)N[C@H]1CSC(=S)NCCCC[C@@H](C(=O)N[C@@H](Cc2ccc(O)cc2)C(=O)N[C@@H](Cc2c[nH]c3ccccc23)C(=O)N[C@@H](CC(N)=O)C(=O)N[C@@H](CC(C)C)C(=O)N[C@@H](CC(C)C)C(=O)N[C@@H](CO)C(=O)N2CCC[C@H]2C(N)=O)NC(=O)[C@H](C)NC(=O)[C@H](Cc2ccccc2)NC(=O)[C@H](CO)NC1=O | 8.38% |  | 
10 | CC(=O)N[C@H](C(=O)N[C@@H](CO)C(=O)N[C@@H](Cc1ccccc1)C(=O)N[C@H]1CSC(=S)NCCCC[C@@H](C(=O)N[C@@H](CC(C)C)C(=O)N[C@@H](CC(C)C)C(=O)N[C@@H](CO)C(=O)N2CCC[C@H]2C(N)=O)NC(=O)[C@H](Cc2c[nH]c3ccccc23)NC(=O)[C@H](Cc2ccc(O)cc2)NC(=O)[C@H](CCC(=O)O)NC1=O)[C@@H](C)O | 9.15% |  | 
11 | C=C(NC(=O)[C@H](Cc1ccccc1)NC(=O)[C@H](CO)NC(=O)[C@@H](NC(C)=O)[C@@H](C)O)C(=O)N[C@@H](CCC(=O)O)C(=O)N[C@@H](Cc1ccc(O)cc1)C(=O)N[C@@H](Cc1c[nH]c2ccccc12)C(=O)N[C@@H](CCCCNC(=S)S)C(=O)N[C@@H](CC(C)C)C(=O)N[C@@H](CC(C)C)C(=O)N[C@@H](CO)C(=O)N1CCC[C@H]1C(N)=O [Ac-Thr-Ser-Phe-Dha-Glu-Tyr-Trp-Lys-Leu-Leu-Ser-Pro-NH2] |  | 33% | 
12 | C=C(NC(=O)[C@H](CC(N)=O)NC(=O)[C@H](Cc1c[nH]c2ccccc12)NC(=O)[C@H](Cc1ccc(O)cc1)NC(=O)[C@H](CCCCNC(=S)S)NC(=O)[C@H](C)NC(=O)[C@H](Cc1ccccc1)NC(=O)[C@H](CO)NC(=O)[C@@H](NC(C)=O)[C@@H](C)O)C(=O)N[C@@H](CC(C)C)C(=O)N[C@@H](CO)C(=O)N1CCC[C@H]1C(N)=O [Ac-Thr-Ser-Phe-Ala-Lys-Tyr-Trp-Asn-Dha-Leu-Ser-Pro-NH2] |  | 24% | 
13 | C=C(NC(=O)[C@H](CO)NC(=O)[C@H](CC(C)C)NC(=O)[C@H](CC(C)C)NC(=O)[C@H](CCCCNC(=S)S)NC(=O)[C@H](Cc1c[nH]c2ccccc12)NC(=O)[C@H](Cc1ccc(O)cc1)NC(=O)[C@H](CCC(=O)O)NC(=O)[C@H](C)NC(=O)[C@H](Cc1ccccc1)NC(=O)[C@H](CO)NC(=O)[C@@H](NC(C)=O)[C@@H](C)O)C(N)=O [Ac-Thr-Ser-Phe-Ala-Glu-Tyr-Trp-Lys-Leu-Leu-Ser-Dha-NH2] |  |  | ring closure, isolated yield [2]: 45%
14 | C=C(NC(=O)[C@H](C)NC(=O)[C@H](Cc1ccccc1)NC(=O)[C@H](CO)NC(=O)[C@H](CCCCNC(=S)S)NC(C)=O)C(=O)N[C@@H](Cc1ccc(O)cc1)C(=O)N[C@@H](Cc1c[nH]c2ccccc12)C(=O)N[C@@H](CC(N)=O)C(=O)N[C@@H](CC(C)C)C(=O)N[C@@H](CC(C)C)C(=O)N[C@@H](CO)C(=O)N1CCC[C@H]1C(N)=O [Ac-Lys-Ser-Phe-Ala-Dha-Tyr-Trp-Asn-Leu-Leu-Ser-Pro-NH2] |  | 28% | 
15 | CC(=O)N[C@H](C(=O)N[C@@H](CO)C(=O)N[C@@H](Cc1ccccc1)C(=O)N[C@@H](C)C(=O)N[C@H]1CCCCNC(=S)SC[C@@H](C(=O)N[C@@H](CC(C)C)C(=O)N[C@@H](CO)C(=O)N2CCC[C@H]2C(N)=O)NC(=O)[C@H](CC(N)=O)NC(=O)[C@H](Cc2c[nH]c3ccccc23)NC(=O)[C@H](Cc2ccc(O)cc2)NC1=O)[C@@H](C)O | 6.88% |  | 
16 | Ac-TSFAEYWNLLSP-NH2 [PMI-0] |  |  | α-Helix (%) [3]: 9.77%; time to full degradation by cathepsin G (cathepsin G): ≤ 30 min
17 | C=C(NC(=O)[C@@H](NC(C)=O)[C@@H](C)O)C(=O)N[C@@H](Cc1ccccc1)C(=O)N[C@@H](C)C(=O)N[C@@H](CCC(=O)O)C(=O)N[C@@H](CCCCNC(=S)S)C(=O)N[C@@H](Cc1c[nH]c2ccccc12)C(=O)N[C@@H](CC(N)=O)C(=O)N[C@@H](CC(C)C)C(=O)N[C@@H](CC(C)C)C(=O)N[C@@H](CO)C(=O)N1CCC[C@H]1C(N)=O [Ac-Thr-Dha-Phe-Ala-Glu-Lys-Trp-Asn-Leu-Leu-Ser-Pro-NH2] |  | 39% | 
18 | CC(=O)N[C@H](C(=O)N[C@@H](CO)C(=O)N[C@@H](Cc1ccccc1)C(=O)N[C@@H](C)C(=O)N[C@@H](CCC(=O)O)C(=O)N[C@@H](Cc1ccc(O)cc1)C(=O)N[C@@H](Cc1c[nH]c2ccccc12)C(=O)N[C@H]1CSC(=S)NCCCC[C@@H](C(N)=O)NC(=O)[C@H](CO)NC(=O)[C@H](CC(C)C)NC(=O)[C@H](CC(C)C)NC1=O)[C@@H](C)O | 0.23% |  | 
19 | C=C(NC(=O)[C@H](C)NC(=O)[C@H](Cc1ccccc1)NC(=O)[C@H](CO)NC(=O)[C@@H](NC(C)=O)[C@@H](C)O)C(=O)N[C@@H](Cc1ccc(O)cc1)C(=O)N[C@@H](Cc1c[nH]c2ccccc12)C(=O)N[C@@H](CC(N)=O)C(=O)N[C@@H](CCCCNC(=S)S)C(=O)N[C@@H](CC(C)C)C(=O)N[C@@H](CO)C(=O)N1CCC[C@H]1C(N)=O [Ac-Thr-Ser-Phe-Ala-Dha-Tyr-Trp-Asn-Lys-Leu-Ser-Pro-NH2] |  | 27% | 
20 | CC(=O)N[C@H](C(=O)N[C@@H](CO)C(=O)N[C@@H](Cc1ccccc1)C(=O)N[C@@H](C)C(=O)N[C@@H](CCC(=O)O)C(=O)N[C@@H](Cc1ccc(O)cc1)C(=O)N[C@@H](Cc1c[nH]c2ccccc12)C(=O)N[C@H]1CCCCNC(=S)SC[C@@H](C(N)=O)NC(=O)[C@H](CO)NC(=O)[C@H](CC(C)C)NC(=O)[C@H](CC(C)C)NC1=O)[C@@H](C)O | 43.3% |  | 
21 | C=C(NC(C)=O)C(=O)N[C@@H](CO)C(=O)N[C@@H](Cc1ccccc1)C(=O)N[C@@H](C)C(=O)N[C@@H](CCCCNC(=S)S)C(=O)N[C@@H](Cc1ccc(O)cc1)C(=O)N[C@@H](Cc1c[nH]c2ccccc12)C(=O)N[C@@H](CC(N)=O)C(=O)N[C@@H](CC(C)C)C(=O)N[C@@H](CC(C)C)C(=O)N[C@@H](CO)C(=O)N1CCC[C@H]1C(N)=O [Ac-Dha-Ser-Phe-Ala-Lys-Tyr-Trp-Asn-Leu-Leu-Ser-Pro-NH2] |  | 37% | 
